Test results from PubChem BioAssay AID330 (DTP/NCI, 2004).
Values joined by “and” are separate entries in the source; they are usually repeats but may differ in a detail not shown here. Equal values may be shown once. Inconclusive results and toxic doses are left out. How the source made its calls: active means survival T/C of 150% or more; inactive means T/C below 125% in these data.

Test system: P388 leukemia ip, CD2F1 mice, survival T/C
Assay: NCI In Vivo Anticancer Drug Screen. Data for tumor model P388 Leukemia (intraperitoneal) in CD2F1 (CDF1) mice
Settings: endpoint: median survival time, higher = longer survival
Outline: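 Mice carrying the transplanted tumor received test compound or vehicle. Survival was recorded in each group, and the value is the treated-group measurement divided by that of the vehicle-treated control group.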

[1] = dose: 60.0 mg/kg/injection, schedule: Q01DX005 (ip), vehicle: saline with Tween-80

Measured: T/C

O=C1C=CC(=O)N1c1ccc(O)cc1
inactive: dose: 1.25 mg/kg/injection, schedule: Q01DX009 (ip), vehicle: saline sonified 95 % of control | dose: 2.5 mg/kg/injection, schedule: Q01DX009 (ip), vehicle: saline sonified 95 % of control

CC(=O)OCN(C)N=Nc1ccc(Br)cc1
inactive: dose: 36.0 mg/kg/injection, schedule: Q01DX005 (ip), vehicle: Klucel (hydroxypropylcellulose) (HPC) 94 % of control | dose: 72.0 mg/kg/injection, schedule: Q01DX005 (ip), vehicle: Klucel (hydroxypropylcellulose) (HPC) 92 % of control

CCOC(=O)/C=C/C(F)(F)C(F)(F)C(F)(F)C(F)(F)C(F)(F)C(F)(F)C(F)(F)F
inactive: dose: 100.0 mg/kg/injection, schedule: Q04DX003 (ip), vehicle: saline 100 % of control | dose: 200.0 mg/kg/injection, schedule: Q04DX003 (ip), vehicle: saline 100 % of control | dose: 400.0 mg/kg/injection, schedule: Q04DX003 (ip), vehicle: saline 100 % of control

C[n+]1ccc2ccccc2c1
inactive: dose: 15.0 mg/kg/injection, schedule: Q01DX005 (ip), vehicle: saline with Tween-80 109 % of control | dose: 30.0 mg/kg/injection, schedule: Q01DX005 (ip), vehicle: saline with Tween-80 100 % of control | [1] 100 % of control and 104 % of control

O=C(/C=C/c1ccccc1)NOC(=O)/C=C/c1ccccc1
inactive: dose: 25.0 mg/kg/injection, schedule: Q01DX009 (ip), vehicle: saline with Tween-80 107 % of control | dose: 50.0 mg/kg/injection, schedule: Q01DX009 (ip), vehicle: saline with Tween-80 107 % of control and 123 % of control | dose: 100.0 mg/kg/injection, schedule: Q01DX009 (ip), vehicle: saline with Tween-80 111 % of control and 114 % of control | dose: 200.0 mg/kg/injection, schedule: Q01DX009 (ip), vehicle: saline with Tween-80 115 % of control

C/C=C1\C[N+]2(C)CCC34c5ccccc5NC32C(O)CC1C4(CO)C(=O)OC (stereo not drawn)
inactive: dose: 4.0 mg/kg/injection, schedule: Q01DX009 (ip), vehicle: saline with Tween-80 110 % of control | dose: 4.0 mg/kg/injection, schedule: Q01DX009 (ip), vehicle: saline 113 % of control | dose: 8.0 mg/kg/injection, schedule: Q01DX009 (ip), vehicle: saline with Tween-80 110 % of control | dose: 8.0 mg/kg/injection, schedule: Q01DX009 (ip), vehicle: saline 97 % of control | dose: 16.0 mg/kg/injection, schedule: Q01DX009 (ip), vehicle: saline with Tween-80 103 % of control | dose: 16.0 mg/kg/injection, schedule: Q01DX009 (ip), vehicle: saline 105 % of control | dose: 32.0 mg/kg/injection, schedule: Q01DX009 (ip), vehicle: saline with Tween-80 110 % of control | dose: 32.0 mg/kg/injection, schedule: Q01DX009 (ip), vehicle: saline 98 % of control

COC(=O)C/C(C)=N/SC(c1ccccc1)(c1ccccc1)c1ccccc1
inactive: dose: 100.0 mg/kg/injection, schedule: Q04DX002 (ip), vehicle: saline with Tween-80 95 % of control | dose: 200.0 mg/kg/injection, schedule: Q04DX002 (ip), vehicle: saline with Tween-80 101 % of control | dose: 400.0 mg/kg/injection, schedule: Q04DX002 (ip), vehicle: saline with Tween-80 94 % of control

CN1C(=O)C(CC(N)=O)NC1=S (stereo not drawn)
inactive: dose: 60.0 mg/kg/injection, schedule: Q01DX005 (ip), vehicle: Klucel (hydroxypropylcellulose) (HPC) 95 % of control | dose: 120.0 mg/kg/injection, schedule: Q01DX005 (ip), vehicle: Klucel (hydroxypropylcellulose) (HPC) 86 % of control | dose: 240.0 mg/kg/injection, schedule: Q01DX005 (ip), vehicle: Klucel (hydroxypropylcellulose) (HPC) 93 % of control

COC(=O)C1CC2CCCCC2C1C(=O)OC (stereo not drawn)
inactive: dose: 100.0 mg/kg/injection, schedule: Q04DX003 (ip), vehicle: Klucel (hydroxypropylcellulose) (HPC) 89 % of control | dose: 200.0 mg/kg/injection, schedule: Q04DX003 (ip), vehicle: Klucel (hydroxypropylcellulose) (HPC) 87 % of control | dose: 400.0 mg/kg/injection, schedule: Q04DX003 (ip), vehicle: Klucel (hydroxypropylcellulose) (HPC) 89 % of control

O=C(c1ccccc1)c1ccccc1NCC(O)COc1ccc(Cl)cc1C(=O)c1ccccc1 (stereo not drawn)
inactive: [1] 91 % of control and 96 % of control | dose: 120.0 mg/kg/injection, schedule: Q01DX005 (ip), vehicle: saline with Tween-80 95 % of control | dose: 240.0 mg/kg/injection, schedule: Q01DX005 (ip), vehicle: saline with Tween-80 88 % of control and 90 % of control

CCOC(=O)c1nc(OCC)nc(OCC)c1I
inactive: dose: 12.5 mg/kg/injection, schedule: Q01DX009 (ip), vehicle: distilled water + Tween-80 112 % of control | dose: 25.0 mg/kg/injection, schedule: Q01DX009 (ip), vehicle: distilled water + Tween-80 107 % of control | dose: 50.0 mg/kg/injection, schedule: Q01DX009 (ip), vehicle: distilled water + Tween-80 96 % of control | dose: 100.0 mg/kg/injection, schedule: Q01DX009 (ip), vehicle: distilled water + Tween-80 95 % of control
